Columns and labels:
Assay type in all cases: biochemical
[1] = target: PKR R532W (Homo sapiens, UniProt P30613, R532W); assay: PKR mutant assay, PKR R532W AC50; settings: mutant PKR R532W enzyme
Experimental: (§1) • PKR or PKR mutant enzyme solution was diluted in assay buffer. • 2 μL of test compound was added into wells first, and then 180 μL reaction mix was added. • Reactions mixture with test compound was assembled except for ADP, and plates were stored for 60 minutes at room temperature. • 20 uL ADP was added to start reaction at room temperature and reaction progress was measured as changes in absorbance at 340 nm wavelength at room temperature.
(§2) Test Compound Preparation: • Test compound stock was made at 100x concentration in 100% DMSO (10 mM) • 1 to 3 dilutions were made for 11 points (i.e. 50 μl of first concentration added to 100 μl 100% DMSO to yield 3.33 mM, 50 μl of this added to 100 μl DMSO to yield 1.11 mM, and so forth) • 1 to 100 dilution into assay (2 μl in 200 μl) yielded starting concentration of 100 μM, decreasing 3 fold for 11 points • Assay Buffer: 100 mM KCl, 50 mM Tris 7.5, 5 mM MgCl2, 1 mM DTT, 0.03% BSA • Reaction Mixture: PKR mutant enzyme: 80-400 ng/well; ADP: 0.22-1.65 mM; PEP: 0.1-0.5 mM; NADH:180 uM; LDH: 0.5 units (Sigma#59023); DTT: 1 mM; BSA: 0.03%.
(§3) A compound described herein was diluted with DMSO and tested at 1 μM concentration. The enzyme was diluted in 1× Buffer: (100 mM KCl, 50 mM Tris 7.5, 5 mM MgCl2, 1 mM DTT, 0.03% BSA). 2 μL of compound solution was first added into wells, and then 180 μL of enzyme solution was added. Assays were assembled except for ADP, and plates were stored for 60 minutes at RT. 20 μL ADP was added to start the assay and assay output was evaluated using OD340 at SpectraMax. The assay was run at room temperature. • Final concentration: PKR R532W (100 ng/well), Tris pH 7.5 (50 mM), KCl (100 mM), MgCl2 (5 mM), ADP (0.36 mM), PEP (0.1 mM), NADH (180 μM), LDH (0.5 units, Sigma 59023), DTT (1 mM) and BSA (0.03%).

[2] = target: PKR R510Q (Homo sapiens, UniProt P30613, R510Q); assay: PKR mutant assay, PKR R510Q AC50; settings: mutant PKR R510Q enzyme
Sequence of PKR R510Q (P30613 whole entry R510Q): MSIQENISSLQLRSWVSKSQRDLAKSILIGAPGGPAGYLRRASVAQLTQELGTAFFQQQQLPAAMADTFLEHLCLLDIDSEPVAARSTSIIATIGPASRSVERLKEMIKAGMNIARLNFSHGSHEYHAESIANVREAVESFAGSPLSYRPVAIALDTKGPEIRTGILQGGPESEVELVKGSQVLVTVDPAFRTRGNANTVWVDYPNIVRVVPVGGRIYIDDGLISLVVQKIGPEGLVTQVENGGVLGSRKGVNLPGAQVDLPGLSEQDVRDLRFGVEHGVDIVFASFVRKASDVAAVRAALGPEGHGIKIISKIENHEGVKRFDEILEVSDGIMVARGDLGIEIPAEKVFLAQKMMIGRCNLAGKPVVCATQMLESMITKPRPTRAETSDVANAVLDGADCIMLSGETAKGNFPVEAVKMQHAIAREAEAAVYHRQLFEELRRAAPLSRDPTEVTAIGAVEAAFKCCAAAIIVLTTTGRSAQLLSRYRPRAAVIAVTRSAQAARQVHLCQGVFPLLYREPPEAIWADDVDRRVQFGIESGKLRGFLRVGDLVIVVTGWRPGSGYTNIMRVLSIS
Experimental: as §1
as §2, with “0.03%. […]” for “0.03%.”

[3] = target: PKR WT (Homo sapiens, UniProt P30613); assay: PKR WT enzymatic assay AC50; settings: wild type PKR
Sequence of PKR WT (P30613 whole entry): as the sequence (P30613 whole entry R510Q) above, with Q510R counted along it
Experimental: as §1, §2
as §3, with “wt” for “R532W”, “(0.48” for “(0.36”, “(0.15” for “(0.1”

Sequence of PKR R532W (P30613 whole entry R532W): as the sequence (P30613 whole entry R510Q) above, with Q510R, R532W counted along it

Structure (SMILES)	AC50 [1]	AC50 [2]	AC50 [3]
O=C(c1ccc(NS(=O)(=O)c2cccc3cccnc23)cc1)N1CC(O)(c2ccccc2F)C1 [Compound 3, N-(4-(3-(2-fluorophenyl)-3-hydroxyazetidine-1-carbonyl)phenyl)quinoline-8-sulfonamide]	101 to 1000 nM	1.01 to 10 µM	101 to 1000 nM
O=C(c1ccc(NS(=O)(=O)c2cccc3cccnc23)cc1)N1CC(O)(c2ccccc2C(F)(F)F)C1 [Compound 6, N-(4-(3-hydroxy-3-(2-(trifluoromethyl)phenyl)azetidine-1-carbonyl)phenyl)quinoline-8-sulfonamide]	101 to 1000 nM	0.101 to 1 µM	101 to 1000 nM
O=C(c1ccc(NS(=O)(=O)c2cccc3cccnc23)cc1)N1CC(O)(c2ccc(F)cc2)C1 [Compound 14, N-(4-(3-(4-fluorophenyl)-3-hydroxyazetidine-1-carbonyl)phenyl)quinoline-8-sulfonamide]	101 to 1000 nM	1.01 to 10 µM	101 to 1000 nM
O=C(c1ccc(NS(=O)(=O)c2cccc3cccnc23)cc1)N1CC(O)(c2cccnc2F)C1 [Compound 18, N-(4-(3-(2-fluoropyridin-3-yl)-3-hydroxyazetidine-1-carbonyl)phenyl)quinoline-8-sulfonamide]	101 to 1000 nM	1.01 to 10 µM	101 to 1000 nM
COc1cccnc1C1(O)CN(C(=O)c2ccc(NS(=O)(=O)c3cccc4cccnc34)cc2)C1 [Compound 21, N-(4-(3-hydroxy-3-(3-methoxypyridin-2-yl)azetidine-1-carbonyl)phenyl)quinoline-8-sulfonamide]	–	1.01 to 10 µM	1010 to 10000 nM
O=C(c1ccc(NS(=O)(=O)c2cccc3cccnc23)cc1)N1CC(O)(c2ncccc2F)C1 [Compound 22, N-(4-(3-(3-fluoropyridin-2-yl)-3-hydroxyazetidine-1-carbonyl)phenyl)quinoline-8-sulfonamide]	101 to 1000 nM	1.01 to 10 µM	101 to 1000 nM
O=C(c1ccc(NS(=O)(=O)c2cccc3cccnc23)cc1)N1CC(O)(c2ncccc2Cl)C1 [Compound 23, N-(4-(3-(3-chloropyridin-2-yl)-3-hydroxyazetidine-1-carbonyl)phenyl)quinoline-8-sulfonamide]	–	> 10 µM	1010 to 10000 nM
O=C(c1ccc(NS(=O)(=O)c2cccc3cccnc23)cc1)N1CC(O)(c2ncccc2C(F)(F)F)C1 [Compound 24, N-(4-(3-hydroxy-3-(3-(trifluoromethyl)pyridin-2-yl)azetidine-1-carbonyl)phenyl)quinoline-8-sulfonamide]	–	1.01 to 10 µM	101 to 1000 nM
O=C(c1ccc(NS(=O)(=O)c2cccc3cccnc23)cc1)N1CC(O)(c2ncccc2OC(F)F)C1 [Compound 25, N-(4-(3-(3-(difluoromethoxy)pyridin-2-yl)-3-hydroxyazetidine-1-carbonyl)phenyl)quinoline-8-sulfonamide]	–	1.01 to 10 µM	101 to 1000 nM
CC(C)(C)C1(O)CN(C(=O)c2ccc(NS(=O)(=O)c3cccc4cccnc34)cc2)C1 [Compound 31, N-(4-(3-(tert-butyl)-3-hydroxyazetidine-1-carbonyl)phenyl)quinoline-8-sulfonamide]	1010 to 10000 nM	> 10 µM	1010 to 10000 nM
CC(C)C1(O)CN(C(=O)c2ccc(NS(=O)(=O)c3cccc4cccnc34)cc2)C1 [Compound 32, N-(4-(3-hydroxy-3-isopropylazetidine-1-carbonyl)phenyl)quinoline-8-sulfonamide]	1010 to 10000 nM	> 10 µM	1010 to 10000 nM
O=C(c1ccc(NS(=O)(=O)c2cccc3cccnc23)cc1)N1CC(O)(C2CC2)C1 [Compound 33, N-(4-(3-cyclopropyl-3-hydroxyazetidine-1-carbonyl)phenyl)quinoline-8-sulfonamide]	1010 to 10000 nM	> 10 µM	1010 to 10000 nM
CCC1(O)CN(C(=O)c2ccc(NS(=O)(=O)c3cccc4cccnc34)cc2)C1 [Compound 34, N-(4-(3-ethyl-3-hydroxyazetidine-1-carbonyl)phenyl)quinoline-8-sulfonamide]	1010 to 10000 nM	> 10 µM	1010 to 10000 nM
CC(C)CC1(O)CN(C(=O)c2ccc(NS(=O)(=O)c3cccc4cccnc34)cc2)C1 [Compound 35, N-(4-(3-hydroxy-3-isobutylazetidine-1-carbonyl)phenyl)quinoline-8-sulfonamide]	101 to 1000 nM	1.01 to 10 µM	101 to 1000 nM
CCCC1(O)CN(C(=O)c2ccc(NS(=O)(=O)c3cccc4cccnc34)cc2)C1 [Compound 36, N-(4-(3-hydroxy-3-propylazetidine-1-carbonyl)phenyl)quinoline-8-sulfonamide]	1010 to 10000 nM	> 10 µM	101 to 1000 nM
O=C(c1ccc(NS(=O)(=O)c2cccc3cccnc23)cc1)N1CC(O)(CC2CC2)C1 [Compound 37, N-(4-(3-(cyclopropylmethyl)-3-hydroxyazetidine-1-carbonyl)phenyl)quinoline-8-sulfonamide]	101 to 1000 nM	> 10 µM	101 to 1000 nM
O=C(c1ccc(NS(=O)(=O)c2cccc3cccnc23)cc1)N1CC(O)(CCO)C1 [Compound 38, N-(4-(3-hydroxy-3-(2-hydroxyethyl)azetidine-1-carbonyl)phenyl)quinoline-8-sulfonamide]	> 10000 nM	> 10 µM	1010 to 10000 nM
CC(O)C1(O)CN(C(=O)c2ccc(NS(=O)(=O)c3cccc4cccnc34)cc2)C1 (stereo not shown) [Compound 39, N-(4-(3-hydroxy-3-(1-hydroxyethyl)azetidine-1-carbonyl)phenyl)quinoline-8-sulfonamide]	> 10000 nM	> 10 µM	> 10000 nM
O=C(c1ccc(NS(=O)(=O)c2cccc3cccnc23)cc1)N1CC(O)(CCCO)C1 [Compound 40, N-(4-(3-hydroxy-3-(3-hydroxypropyl)azetidine-1-carbonyl)phenyl)quinoline-8-sulfonamide]	1010 to 10000 nM	> 10 µM	1010 to 10000 nM
CC(O)CC1(O)CN(C(=O)c2ccc(NS(=O)(=O)c3cccc4cccnc34)cc2)C1 (stereo not shown) [Compound 41, N-(4-(3-hydroxy-3-(2-hydroxypropyl)azetidine-1-carbonyl)phenyl)quinoline-8-sulfonamide]	1010 to 10000 nM	> 10 µM	1010 to 10000 nM
O=C(c1ccc(NS(=O)(=O)c2cccc3cnccc23)cc1)N1CC(O)(Cc2ccccc2)C1 [Compound 48, N-(4-(3-benzyl-3-hydroxyazetidine-1-carbonyl)phenyl)isoquinoline-5-sulfonamide]	> 10000 nM	–	> 10000 nM
O=C(c1ccc(NS(=O)(=O)c2ccc(C(F)(F)F)cc2)cc1)N1CC(O)(Cc2ccccc2)C1 [Compound 50, N-(4-(3-benzyl-3-hydroxyazetidine-1-carbonyl)phenyl)-4-(trifluoromethyl)benzenesulfonamide]	> 10000 nM	–	–
Cc1cccnc1C1(O)CN(C(=O)c2ccc(NS(=O)(=O)c3cccc4cccnc34)cc2)C1 [Compound 59]	–	> 10 µM	–
O=C(c1ccc(NS(=O)(=O)c2ccc(OC(F)(F)F)cc2)cc1)N1CC(O)(Cc2ccccc2)C1 [Compound 65]	> 10000 nM	–	> 10000 nM
CN1C(=O)Cc2cc(S(=O)(=O)Nc3ccc(C(=O)N4CC(O)(Cc5ccccc5)C4)cc3)ccc21 [Compound 66]	> 10000 nM	–	> 10000 nM

Source: US9458132B2, “Therapeutic compounds and compositions and their use as PKM2 modulators” (AGIOS PHARMACEUTICALS, INC., priority 2012, dated 2016)
